Measurements reported in patent US20130225830A1, “POLYMORPHS OF FEBUXOSTAT” (MAPI PHARMA LIMITED, priority 2010, published 2013).
Several values for one entry are separate records, joined by “and”; a condition that tells them apart may be missing. Identical values can stand only once.

Key:
Assay type in all cases: physicochemical
[1] = Physical stability measurements (XRPD, DSC, TGA)
Method: Testing conditions: 40° C., 60° C., 40° C./RH 75%, 60° C./RH 75%, light
Testing procedure: About 50 mg of a febuxostat form were weighed in glass vial for testing the physical stability and were stored under different conditions for 1 week and 2 weeks, separately. The same febuxostat form was stored at −20° C. as control. XRPD, DSC and TGA of each of the febuxostat forms were measured at the end of the first and second weeks.

[2] = Hygroscopicity measurements (DVS sorption/desorption profiles)
Method: The sorption/desorption profiles of the forms of the present invention were tested at 25° C. under 0-90% relative humidity. The forms of the present invention were classified according to the following criteria: Deliquescent: Sufficient water is absorbed to form a liquid. […] Hygroscopic: Increase in mass is less than 15% and equal to or greater than 2%. Slightly hygroscopic: Increase in mass is less than 2% and equal to or greater than 0.2%. Non-hygroscopic: Increase in mass is less than 0.2%.

[3] = Bulk and tapped density measurements
Method: Bulk density testing: A febuxostat form in an amount which is sufficient to complete the test was passed through a 1.0 mm (No. 18) screen to break up agglomerates that may have formed during storage. The febuxostat form was then weighed (M) and the powder was added into a 10 mL graduated cylinder. The powder was carefully leveled without compacting, and the unsettled apparent volume, Vo, was read. The bulk density, in g per mL, was calculated by the formula: Bulk Density=M/Vo Tapped density testing: A febuxostat form in an amount which is sufficient to complete the test was passed through a 1.0 mm (No. 18) screen to break up agglomerates that may have formed during storage. The febuxostat form was then weighed and the powder was added into a 10 mL graduated cylinder. The powder was carefully leveled without compacting. The cylinder was tapped 500 times initially and the tapped volume, Va, was measured to the nearest graduated unit. The tapping was then repeated for additional 750 times and the tapped volume, Vb, was measured to the nearest graduated unit. If the difference between the two volumes was less than 2%, Vb was taken as the final tapped volume, Vf. The tapped density, in g per mL, was calculated by the formula: Tapped Density=M/Vf

[4] = Solid stability measurements (appearance, assay and total related substances by HPLC); conditions: for Remaining (%): one value for both samples, vs −20° C. control; for Appearance / TRS (%): samples 1 and 2
Method: The detailed chromatographic conditions are listed hereinbelow. The typical retention time of febuxostat main peak is 8.2 min. [table] Testing conditions: 40° C., 60° C., 40° C./RH 75%, 60° C./RH 75%, light Testing procedure: About 3 mg of a febuxostat form were weighed in a glass vial and stored under the different conditions for 1 week and 2 weeks, separately. The same febuxostat form was stored at −20° C. as control. The test was conducted in duplication. The physical appearance, assay and total related substances of each of the febuxostat forms were measured by HPLC at the end of the first and second weeks.

In the case of `Cc1nc(-c2ccc(OCC(C)C)c(C#N)c2)sc1C(=O)O` [Form IX, 2-(3-cyano-4-isobutoxyphenyl)-4-methyl-5-thiazolecarboxylic acid], the “physical stability (XRPD, DSC, TGA)” value ([1]; 40° C., 60° C. and light at the end of the first and second week) is reported as “stable”, the “physical stability (XRPD, DSC, TGA), form conversion” value ([1]; 40° C./75% RH at the end of the second week) is reported as “partially converted to form G” and the “physical stability (XRPD, DSC, TGA), form conversion” value ([1]; 60° C./75% RH at the end of the first and second weeks) is reported as “completely converted to form G”. The Hygroscopicity classification ([2]; 25° C., 0-90% relative humidity) was “hygroscopic”, the “hygroscopicity compared with Form G of U.S. Pat. No. 6,225,474” value ([2]; DVS isotherm plots) was “less hygroscopic” and the “Change in Mass (%) - ref, Desorption” value ([2]; Target % P/P0 0.0, 25° C.) was 0.031%. For the same compound, the “Change in Mass (%) - ref, Sorption” value ([2]; Target % P/P0 0.0, 25° C.) was 0.000%, the “Change in Mass (%) - ref, Desorption” value ([2]; Target % P/P0 10.0, 25° C.) was 0.247% and the “Change in Mass (%) - ref, Hysteresis” value ([2]; Target % P/P0 10.0, 25° C.) was 0.121%. The “Change in Mass (%) - ref, Sorption” value ([2]; Target % P/P0 10.0, 25° C.) was 0.127%, the “Change in Mass (%) - ref, Desorption” value ([2]; Target % P/P0 20.0, 25° C.) was 0.323% and the “Change in Mass (%) - ref, Hysteresis” value ([2]; Target % P/P0 20.0, 25° C.) was 0.128%. The “Change in Mass (%) - ref, Sorption” value ([2]; Target % P/P0 20.0, 25° C.) was 0.195%, the “Change in Mass (%) - ref, Desorption” value ([2]; Target % P/P0 30.0, 25° C.) was 0.428% and the “Change in Mass (%) - ref, Hysteresis” value ([2]; Target % P/P0 30.0, 25° C.) was 0.176%. For the same compound, the “Change in Mass (%) - ref, Sorption” value ([2]; Target % P/P0 30.0, 25° C.) was 0.252%, the “Change in Mass (%) - ref, Desorption” value ([2]; Target % P/P0 40.0, 25° C.) was 0.510% and the “Change in Mass (%) - ref, Hysteresis” value ([2]; Target % P/P0 40.0, 25° C.) was 0.160%. The “Change in Mass (%) - ref, Sorption” value ([2]; Target % P/P0 40.0, 25° C.) was 0.351%, the “Change in Mass (%) - ref, Desorption” value ([2]; Target % P/P0 50.0, 25° C.) was 0.616% and the “Change in Mass (%) - ref, Hysteresis” value ([2]; Target % P/P0 50.0, 25° C.) was 0.184%. The “Change in Mass (%) - ref, Sorption” value ([2]; Target % P/P0 50.0, 25° C.) was 0.432%, the “Change in Mass (%) - ref, Desorption” value ([2]; Target % P/P0 60.0, 25° C.) was 0.786% and the “Change in Mass (%) - ref, Hysteresis” value ([2]; Target % P/P0 60.0, 25° C.) was 0.221%. For the same compound, the “Change in Mass (%) - ref, Sorption” value ([2]; Target % P/P0 60.0, 25° C.) was 0.566%, the “Change in Mass (%) - ref, Desorption” value ([2]; Target % P/P0 70.0, 25° C.) was 1.139% and the “Change in Mass (%) - ref, Hysteresis” value ([2]; Target % P/P0 70.0, 25° C.) was 0.391%. For the same compound, the “Change in Mass (%) - ref, Sorption” value ([2]; Target % P/P0 70.0, 25° C.) was 0.747%, the “Change in Mass (%) - ref, Desorption” value ([2]; Target % P/P0 80.0, 25° C.) was 1.583% and the “Change in Mass (%) - ref, Hysteresis” value ([2]; Target % P/P0 80.0, 25° C.) was 0.583%. The “Change in Mass (%) - ref, Sorption” value ([2]; Target % P/P0 80.0, 25° C.) was 1.000%, the “Change in Mass (%) - ref, Desorption” value ([2]; Target % P/P0 90.0, 25° C.) was 2.135% and the “Change in Mass (%) - ref, Sorption” value ([2]; Target % P/P0 90.0, 25° C.) was 2.135%. The “Bulk Density” value [3] was 0.177 g/mL, the “Tapped Density” value [3] was 0.282 g/mL and the “bulk and tapped densities (in words)” value ([3]; compared among forms V, IX, XI and form G) was “lowest bulk and tapped densities”. The “change of assay and TRS (in words)” value ([4]; 40° C., 60° C., 40° C./75% RH, 60° C./75% RH at end of the first and second weeks) was “no significant change”, the “Remaining (%)” value ([4]; 40° C., 7 d) was 99.70% and the Appearance ([4]; 40° C., 7 d) was “No change”. The “TRS (%)” value ([4]; 40° C., 7 d) was 1.28% and 1.30%, the “Remaining (%)” value ([4]; 40° C., 14 d) was 100.02% and the Appearance ([4]; 40° C., 14 d) was “No change”. The “TRS (%)” value ([4]; 40° C., 14 d) was 1.29% and 1.32%, the “Remaining (%)” value ([4]; 40° C./75% RH, 7 d) was 100.47% and the Appearance ([4]; 40° C./75% RH, 7 d) was “No change”. For the same compound, the “TRS (%)” value ([4]; 40° C./75% RH, 7 d) was 1.34% and 1.31%, the “Remaining (%)” value ([4]; 40° C./75% RH, 14 d) was 99.47% and the Appearance ([4]; 40° C./75% RH, 14 d) was “No change”. The “TRS (%)” value ([4]; 40° C./75% RH, 14 d) was 1.35% and 1.33%, the “Remaining (%)” value ([4]; 60° C., 7 d) was 100.80% and the Appearance ([4]; 60° C., 7 d) was “No change”. For the same compound, the “TRS (%)” value ([4]; 60° C., 7 d) was 1.37% and 1.35%, the “Remaining (%)” value ([4]; 60° C., 14 d) was 100.41% and the Appearance ([4]; 60° C., 14 d) was “No change”. The “TRS (%)” value ([4]; 60° C., 14 d) was 1.38% and 1.35%, the “Remaining (%)” value ([4]; 60° C./75% RH, 7 d) was 100.89% and the Appearance ([4]; 60° C./75% RH, 7 d) was “No change”. For the same compound, the “TRS (%)” value ([4]; 60° C./75% RH, 7 d) was 1.33%, the “Remaining (%)” value ([4]; 60° C./75% RH, 14 d) was 100.07% and the Appearance ([4]; 60° C./75% RH, 14 d) was “No change”. The “TRS (%)” value ([4]; 60° C./75% RH, 14 d) was 1.35% and 1.33%, the “Remaining (%)” value ([4]; Light, 7 d) was 97.50% and the Appearance ([4]; Light, 7 d) was “Light yellow”. For the same compound, the “TRS (%)” value ([4]; Light, 7 d) was 3.07% and 3.05%, the “Remaining (%)” value ([4]; Light, 14 d) was 92.81% and the Appearance ([4]; Light, 14 d) was “Light yellow”. The “TRS (%)” value ([4]; Light, 14 d) was 6.30% and 6.54%, the Appearance ([4]; −20° C. (control), 7 d) was “No change” and the “TRS (%)” value ([4]; −20° C. (control), 7 d) was 1.23% and 1.22%. The Appearance ([4]; −20° C. (control), 14 d) was “No change” and the “TRS (%)” value ([4]; −20° C. (control), 14 d) was 1.24% and 1.23%.
